Tested on: SW1271 complex spheroids with HUVEC/MSC, growth, % test/control
Assay: Anticancer human tumor SW1271 cell line growth inhibition [AhR];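 also: spheroids exposed to agents for 7 days before readout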
Settings: for IC50: curve of first compound; for viability, T/C: stronger effect = lower value
Method in brief: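 Complex tumor spheroids co-cultured with HUVEC and human MSC stroma; AhR antagonists tested in combination with standard-of-care and investigational agents. Top concentration at or near clinical Cmax (else 10 microM), half-log dilutions; growth expressed as percent test/control.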

[1] = second compound 0.1 µM, first compound 0.00316 µM
[2] = second compound 0.1 µM, first compound 0.01 µM
[3] = second compound 0.1 µM, first compound 0.0316 µM
[4] = second compound 0.1 µM, first compound 0.1 µM
[5] = second compound 0.316 µM, first compound 0.00316 µM
[6] = second compound 0.316 µM, first compound 0.01 µM
[7] = second compound 0.316 µM, first compound 0.0316 µM
[8] = second compound 0.316 µM, first compound 0.1 µM
[9] = second compound 1 µM, first compound 0.00316 µM
[10] = second compound 1 µM, first compound 0.01 µM
[11] = second compound 1 µM, first compound 0.0316 µM
[12] = second compound 1 µM, first compound 0.1 µM
[13] = second compound 3.16 µM, first compound 0.00316 µM
[14] = second compound 3.16 µM, first compound 0.01 µM
[15] = second compound 3.16 µM, first compound 0.0316 µM
[16] = second compound 3.16 µM, first compound 0.1 µM
[17] = second compound 10 µM, first compound 0.00316 µM
[18] = second compound 10 µM, first compound 0.01 µM
[19] = second compound 10 µM, first compound 0.0316 µM
[20] = second compound 10 µM, first compound 0.1 µM
[21] = second compound 0.1 µM, first compound 0.316 µM
[22] = second compound 0.1 µM, first compound 1 µM
[23] = second compound 0.1 µM, first compound 3.16 µM
[24] = second compound 0.1 µM, first compound 10 µM
[25] = second compound 0.316 µM, first compound 0.316 µM
[26] = second compound 0.316 µM, first compound 1 µM
[27] = second compound 0.316 µM, first compound 3.16 µM
[28] = second compound 0.316 µM, first compound 10 µM
[29] = second compound 1 µM, first compound 0.316 µM
[30] = second compound 1 µM, first compound 1 µM
[31] = second compound 1 µM, first compound 3.16 µM
[32] = second compound 1 µM, first compound 10 µM
[33] = second compound 3.16 µM, first compound 0.316 µM
[34] = second compound 3.16 µM, first compound 1 µM
[35] = second compound 3.16 µM, first compound 3.16 µM
[36] = second compound 3.16 µM, first compound 10 µM
[37] = second compound 10 µM, first compound 0.316 µM
[38] = second compound 10 µM, first compound 1 µM
[39] = second compound 10 µM, first compound 3.16 µM
[40] = second compound 10 µM, first compound 10 µM

| SMILES | IC50 (second compound 0.1 µM) [nM] | IC50 (second compound 0.316 µM) [nM] | IC50 (second compound 1 µM) [nM] | IC50 (second compound 3.16 µM) [nM] | IC50 (second compound 10 µM) [nM] | viability, T/C [3] [%] | viability, T/C [4] [%] | viability, T/C [7] [%] | viability, T/C [8] [%] | viability, T/C [11] [%] | viability, T/C [12] [%] | viability, T/C [15] [%] | viability, T/C [16] [%] | viability, T/C [19] [%] | viability, T/C [20] [%] | viability, T/C [21] [%] | viability, T/C [22] [%] | viability, T/C [25] [%] | viability, T/C [26] [%] | viability, T/C [29] [%] | further results |
| --- | --- | --- | --- | --- | --- | --- | --- | --- | --- | --- | --- | --- | --- | --- | --- | --- | --- | --- | --- | --- | --- |
| CC[C@@]1(O)C(=O)OCc2c1cc1n(c2=O)Cc2cc3c(CN(C)C)c(O)ccc3nc2-1 + Cc1cncc(-c2nc(NCCc3c[nH]c4ccccc34)c3ncn(C(C)C)c3n2)c1 | > 100 | > 100 | > 100 | > 100 | 11.9 | 105 | 91 | 102 | 67 | 77.4 | 80.2 | 96 | 78 | 45 | 37.1 |  |  |  |  |  | viability, T/C (second compound 0.1 µM, first compound 0.000316 µM): 85.2%; viability, T/C (second compound 0.1 µM, first compound 0.001 µM): 99.7%; viability, T/C [1]: 124%; viability, T/C [2]: 84.9%; viability, T/C (second compound 0.316 µM, first compound 0.000316 µM): 93.5%; viability, T/C (second compound 0.316 µM, first compound 0.001 µM): 114%; viability, T/C [5]: 108%; viability, T/C [6]: 94.3%; viability, T/C (second compound 1 µM, first compound 0.000316 µM): 100%; viability, T/C (second compound 1 µM, first compound 0.001 µM): 118%; viability, T/C [9]: 108%; viability, T/C [10]: 88.9%; viability, T/C (second compound 3.16 µM, first compound 0.000316 µM): 95.2%; viability, T/C (second compound 3.16 µM, first compound 0.001 µM): 109%; viability, T/C [13]: 106%; viability, T/C [14]: 86.5%; viability, T/C (second compound 10 µM, first compound 0.000316 µM): 66.1%; viability, T/C (second compound 10 µM, first compound 0.001 µM): 62.2%; viability, T/C [17]: 52%; viability, T/C [18]: 54.5% |
| COc1cc(C2c3cc4c(cc3C(OC3OC5COC(C)OC5C(O)C3O)C3COC(=O)C23)OCO4)cc(OC)c1O (stereo not given) + Cc1cncc(-c2nc(NCCc3c[nH]c4ccccc34)c3ncn(C(C)C)c3n2)c1 | > 10000 | > 10000 | > 10000 | > 10000 | < 31.6 | 81.6 | 88.5 | 86.1 | 86.3 | 96.2 | 80.1 | 89.8 | 99.2 | 41.5 | 39.6 | 68.1 | 60.7 | 67.4 | 53.8 | 79.2 | viability, T/C [23]: 63.6%; viability, T/C [24]: 65.3%; viability, T/C [27]: 66.1%; viability, T/C [28]: 53.4%; viability, T/C [30]: 80.9%; viability, T/C [31]: 55.9%; viability, T/C [32]: 72%; viability, T/C [33]: 112%; viability, T/C [34]: 76.2%; viability, T/C [35]: 72.4%; viability, T/C [36]: 70.6%; viability, T/C [37]: 41%; viability, T/C [38]: 35.4%; viability, T/C [39]: 32.6%; viability, T/C [40]: 29.1% |
| COc1cccc2c1C(=O)c1c(O)c3c(c(O)c1C2=O)CC(O)(C(=O)CO)CC3OC1CC(N)C(O)C(C)O1 (stereo not given) + Cc1cncc(-c2nc(NCCc3c[nH]c4ccccc34)c3ncn(C(C)C)c3n2)c1 | 332 | 280 | 380 | 258 | < 31.6 | 74 | 79.5 | 81.5 | 72.4 | 89.5 | 89 | 95 | 77.8 | 48 | 38.4 | 51.9 | 6.7 | 47.1 | 2.96 | 58.8 | viability, T/C [23]: 3.78%; viability, T/C [24]: 5.75%; viability, T/C [27]: 3.17%; viability, T/C [28]: 6.88%; viability, T/C [30]: 1.94%; viability, T/C [31]: 4.32%; viability, T/C [32]: 4.87%; viability, T/C [33]: 46.4%; viability, T/C [34]: 1.86%; viability, T/C [35]: 5.28%; viability, T/C [36]: 7.13%; viability, T/C [37]: 24.3%; viability, T/C [38]: 3.36%; viability, T/C [39]: 9.24%; viability, T/C [40]: 7.74% |
| Nc1ccn(C2OC(CO)C(O)C2(F)F)c(=O)n1 (stereo not given) + Cc1cncc(-c2nc(NCCc3c[nH]c4ccccc34)c3ncn(C(C)C)c3n2)c1 | > 10000 | > 10000 | > 10000 | > 10000 | < 31.6 | 75.4 | 97.1 | 60.5 | 65.8 | 74.2 | 72.8 | 81.1 | 78.6 | 39.5 | 38.2 | 67 | 64 | 68 | 64.3 | 85.4 | viability, T/C [23]: 62.7%; viability, T/C [24]: 54.6%; viability, T/C [27]: 66.9%; viability, T/C [28]: 56.8%; viability, T/C [30]: 65%; viability, T/C [31]: 67.8%; viability, T/C [32]: 58.4%; viability, T/C [33]: 103%; viability, T/C [34]: 65%; viability, T/C [35]: 81.8%; viability, T/C [36]: 75.2%; viability, T/C [37]: 39.3%; viability, T/C [38]: 36.7%; viability, T/C [39]: 37.8%; viability, T/C [40]: 30.6% |
| Nc1ncn(C2CC(O)C(CO)O2)c(=O)n1 (stereo not given) + Cc1cncc(-c2nc(NCCc3c[nH]c4ccccc34)c3ncn(C(C)C)c3n2)c1 | > 1000 | > 1000 | > 1000 | > 1000 | 307 | 104 | 87 | 111 | 83.4 | 107 | 77.3 | 87.9 | 104 | 51 | 53 | 83.1 | 83.8 | 76.3 | 95.1 | 111 | viability, T/C [1]: 107%; viability, T/C [2]: 123%; viability, T/C [5]: 105%; viability, T/C [6]: 92.6%; viability, T/C [9]: 88.1%; viability, T/C [10]: 90.5%; viability, T/C [30]: 84%; viability, T/C [13]: 97.4%; viability, T/C [14]: 103%; viability, T/C [33]: 90%; viability, T/C [34]: 110%; viability, T/C [17]: 52.4%; viability, T/C [18]: 54.8%; viability, T/C [37]: 48.9%; viability, T/C [38]: 47.5% |

Reference: PubChem BioAssay AID1919017 (Molecular Pharmacology Branch, DTP, NCI, 2023)
